Test results from US20140079632A1, “ACTIVITY-BASED PROBES FOR THE UROKINASE P[…]” (UNIVERSITEIT ANTWERPEN, priority 2011, published 2014).

What was measured:
Assay type in all cases: biochemical
uPA [1] = target: T1, uPA (Homo sapiens, UniProt P00749); assay: uPA inhibition: in vitro evaluation, IC50 with chromogenic substrate Biophen CS-61(44); conditions: 15 min preincubation at 37° C.; Tris buffer pH 8.8; 250 μM substrate
T1 construct: purchased Nodia
Procedure: Enzymatic activity was measured at 37° C. in a Spectramax 340 (Molecular Devices) microtiter plate reader using the chromogenic substrate Biophen CS-61(44) (LpyroGlu-Gly L-Arg-p-NA.HCl), with a Km of 80 μM.
(§1) The substrate and human enzyme were obtained from Nodia. The reaction was monitored at 405 nm, and the initial rate was determined between 0 and 0.25 absorbance units in 20 min. The reaction mixture contained 250 μM substrate and approximately 1 mU of enzyme in 145 μL of buffer in a final volume of 200 μL. A 50 mM Tris buffer, pH 8.8, was used. From each inhibitor concentration, 5 μL was added, obtaining a final concentration from 0 to 250 μM in a total volume of 0.2 mL. Activity measurements were routinely performed in duplicate. […] IC50 values were obtained by fitting the data with the four-parameter logistics equation using Grafit 5.
where s=slope factor, v=rate, I0=inhibitor concentration, and range=the fitted uninhibited value minus the background. The equation assumes the y falls with increasing x.
(§2) Inhibitor stock solutions were prepared in DMSO and stored at −20° C. Because the compounds described in this paper completely inactivate uPA following pseudofirst-order kinetics, the IC50 value is inversely correlated with the second-order rate constant of inactivation. For a simple pseudofirst-order inactivation process, the activity after incubation with inhibitor (vi) varies with the inhibitor concentration (i), as described in the following equation: […]

uPA [2] = target: T1, uPA; assay: uPA inactivation kinetics from progress curves (kobs versus inhibitor concentration, kapp); conditions: asterisked: compound showed a two-step mechanism, kapp calculated as k2/K1; 250 μM substrate; 37° C.
Procedure: as §2
where vo is the activity in absence of inhibitor, k is the second-order rate constant of inactivation, and t is the time. The inactivation rate constant was determined from the time course of inhibition.
The inhibitor was mixed with the substrate (250 μM final concentration), and the buffer solution with the enzyme was added at the time zero. The inhibitor concentrations were chosen to obtain total inhibition of the enzyme within 20 min. The progress curves show the absorbance of p-nitroanilide produced as a function of time. Initially, no inhibitor is bound to the enzyme, and the tangent to the progress curve (dA/dt) is proportional to the concentration of the free enzyme. The concentration of free enzyme decreases over time due to the kinetics of inhibitor binding, as described above. Progress curves were recorded in pseudofirst-order conditions ([I]0>>[E]0) and with less than 10% conversion of the substrate during the entire time course. In these conditions, dA/dt decreases exponentially with time. The progress curves were fitted with the integrated rate equation to yield a value for kobs, a pseudofirst-order rate constant
At=v0[1−e^−k^obs^t]/kobs+A0
where At=absorbance at time t, A0=absorbance at time zero, and v0=uninhibited initial rate.
The apparent second-order rate constant (kapp) was calculated from the slope of the linear part of the plot of kobs versus the inhibitor concentration ([I]0). In case of competition between the inhibitor and the substrate, kapp is smaller than the “real” second order rate constant k discussed above because a certain fraction of the enzyme is present as an enzyme-substrate complex. kapp depends on the substrate concentration used in the experiment, as described by Lambeir et al.^40 For most final compounds, the kobs versus [I]0 plot was not linear, but could be fitted with a hyperbolic function: kobs=k2[I]0/(K1+[I]0) (two step mechanism). Where K1 is the dissociation constant of the reversible enzyme-inhibitor complex and k2 is the first-order rate constant associated with irreversible modification of the enzyme. A kapp could be calculated as k2/K1.

tPA (recombinant) = target: T2, tPA (recombinant) (Homo sapiens, UniProt P00750); assay: Selectivity: tPA inhibition, substrate Biophen CS-05(88); conditions: 15 min preincubation; Tris buffer pH 8.3; 1.25 mM substrate
T2 construct: purchased Nodia
T2 sequence (P00750 36-562, species assumed): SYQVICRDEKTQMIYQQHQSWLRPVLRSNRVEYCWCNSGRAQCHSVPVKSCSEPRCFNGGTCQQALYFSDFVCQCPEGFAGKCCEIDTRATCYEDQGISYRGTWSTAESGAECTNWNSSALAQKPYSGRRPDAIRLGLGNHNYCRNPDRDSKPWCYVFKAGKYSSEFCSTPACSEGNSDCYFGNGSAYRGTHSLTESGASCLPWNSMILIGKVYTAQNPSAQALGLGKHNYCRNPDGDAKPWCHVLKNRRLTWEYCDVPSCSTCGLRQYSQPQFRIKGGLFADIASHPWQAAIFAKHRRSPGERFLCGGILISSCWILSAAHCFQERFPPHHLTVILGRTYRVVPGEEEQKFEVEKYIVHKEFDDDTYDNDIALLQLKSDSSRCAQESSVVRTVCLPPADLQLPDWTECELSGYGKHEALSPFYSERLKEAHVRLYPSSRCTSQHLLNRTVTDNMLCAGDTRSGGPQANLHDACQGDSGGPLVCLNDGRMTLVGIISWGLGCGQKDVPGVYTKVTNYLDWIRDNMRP
Procedure: as §1, with “The reaction mixture contained 250 μM substrate and approximately 1 mU of enzyme in 145 μL of buffer in a final volume of 200 μL.” left out
(§3) The IC50 values for plasmin (from human plasma, Sigma), tPA (recombinant, Nodia), thrombin (from human plasma, Sigma), and FXa were determined in the same way as for uPA.
(§4) For tPA and thrombin, Tris buffer, pH 8.3, was used, for FXa, Tris buffer, pH 8.3, for plasmin, Tris buffer, pH 7.4, was used.

[3] = target: T3, thrombin (from human plasma) (Homo sapiens, UniProt P00734); assay: Selectivity: thrombin inhibition, substrate Biophen CS-21(66); conditions: 15 min preincubation; Tris buffer pH 8.3; 580 μM substrate
T3 construct: thrombin (from human plasma, Sigma); purchased Sigma; host or cells: human plasma
Procedure: as §1, with “The reaction mixture contained 250 μM substrate and approximately 1 mU of enzyme in 145 μL of buffer in a final volume of 200 μL.” left out
as §3, §4

[4] = target: T4, plasmin (from human plasma) (Homo sapiens, UniProt P00747); assay: Selectivity: plasmin inhibition, substrate Biophen CS-21(66); conditions: 15 min preincubation; Tris buffer pH 7.4; 580 μM substrate
T4 construct: purchased Sigma; host or cells: human plasma
T4 sequence (P00747 581-810 limits assumed): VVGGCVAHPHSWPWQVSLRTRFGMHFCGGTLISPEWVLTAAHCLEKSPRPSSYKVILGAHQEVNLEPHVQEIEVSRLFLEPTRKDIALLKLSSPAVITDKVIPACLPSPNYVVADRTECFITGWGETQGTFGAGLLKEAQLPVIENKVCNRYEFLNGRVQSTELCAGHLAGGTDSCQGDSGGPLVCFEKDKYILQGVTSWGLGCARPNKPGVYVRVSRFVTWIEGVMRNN
T4 sequence (P00747 97-580 partner limits assumed): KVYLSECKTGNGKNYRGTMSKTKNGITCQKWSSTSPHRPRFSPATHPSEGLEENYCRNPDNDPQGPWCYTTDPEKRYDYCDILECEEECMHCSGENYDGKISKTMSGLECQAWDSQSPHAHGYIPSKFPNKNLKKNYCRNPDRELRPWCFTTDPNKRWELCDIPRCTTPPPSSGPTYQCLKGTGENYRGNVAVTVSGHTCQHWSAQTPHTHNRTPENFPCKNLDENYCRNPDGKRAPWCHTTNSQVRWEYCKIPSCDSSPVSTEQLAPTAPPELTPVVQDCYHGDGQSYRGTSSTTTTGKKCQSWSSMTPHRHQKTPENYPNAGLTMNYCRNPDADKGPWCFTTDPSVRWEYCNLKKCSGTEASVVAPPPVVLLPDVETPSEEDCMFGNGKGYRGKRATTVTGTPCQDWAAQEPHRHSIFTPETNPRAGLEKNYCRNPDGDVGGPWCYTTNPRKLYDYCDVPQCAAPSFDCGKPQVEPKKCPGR
Procedure: as §1, with “The reaction mixture contained 250 μM substrate and approximately 1 mU of enzyme in 145 μL of buffer in a final volume of 200 μL.” left out
as §3, §4

FXa = FXa (Homo sapiens, UniProt P00742); assay: Selectivity: FXa inhibition, substrate Biophen CS-11(32); conditions: for FXa % (I) @ 250: at 250 (μM)
Chain of FXa (P00742 235-488 limits assumed): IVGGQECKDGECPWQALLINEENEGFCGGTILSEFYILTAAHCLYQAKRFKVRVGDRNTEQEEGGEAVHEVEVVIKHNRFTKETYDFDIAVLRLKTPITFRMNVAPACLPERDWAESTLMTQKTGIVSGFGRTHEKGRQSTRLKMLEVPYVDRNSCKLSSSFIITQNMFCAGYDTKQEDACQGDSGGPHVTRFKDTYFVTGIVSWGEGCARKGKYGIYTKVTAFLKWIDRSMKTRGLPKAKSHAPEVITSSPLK
Chain of FXa (P00742 41-179 partner limits assumed): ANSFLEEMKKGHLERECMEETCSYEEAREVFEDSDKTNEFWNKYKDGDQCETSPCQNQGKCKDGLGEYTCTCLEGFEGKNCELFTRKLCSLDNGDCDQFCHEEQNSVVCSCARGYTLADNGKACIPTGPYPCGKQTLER

Structure (SMILES)	IC50 (uPA [1])	uPA: kapp (uPA [2])	IC50 (tPA (recombinant))	IC50 [3]	IC50 [4]	FXa % (I) @ 250 (FXa)	IC50 (FXa; 15 min preincubation, Tris buffer pH 8.3, 522 μM substrate)
N=C(N)Nc1ccc(CC(NC(=O)OCCCc2cn(CCOCCOCCOCCNC(=O)CCCC[C@@H]3SC[C@@H]4NC(=O)N[C@@H]43)nn2)P(=O)(Oc2ccccc2)Oc2ccccc2)cc1.O=C(O)C(F)(F)F (stereo partly drawn) [Final compound 7, 3-(1-(13-oxo-17-((3aS,4S,6aR)-2-oxohexahydro-1H-thieno[3,4-d]imidazol-4-yl)-3,6,9-trioxa-12-azaheptadecyl)-1H-1,2,3-triazol-4-yl)propyl (1-(diphenoxyphosphoryl)-2-(4-guanidinophenyl)ethyl)carbamate 2,2,2-trifluoroacetate]	0.0156 ± 0.001 µM	86 × 10^2 ± 10 × 10^2 * M^−1 s^−1	58 ± 6 µM	14.1 ± 0.3 µM	4.7 ± 0.1 µM	73% I @ 250 ^	
Cl.N=C(N)Nc1ccc(CC(NC(=O)OCCCc2cn(CCOCCOCCOCCNC(=O)c3ccc(F)cc3)nn2)P(=O)(Oc2ccccc2)Oc2ccccc2)cc1 (stereo not drawn) [Final compound 8, 3-(1-(1-(4-fluorophenyl)-1-oxo-5,8,11-trioxa-2-azamidecan-13-yl)-1H-1,2,3-triazol-4-yl)propyl (1-(diphenoxyphosphoryl)-2-(4-guanidinophenyl)ethyl)carbamate hydrochloride]	0.019 ± 0.002 µM	68 × 10^2 ± 25 × 10^2 * M^−1 s^−1	46 ± 5 µM	13.2 ± 0.6 µM	5.9 ± 0.8 µM		~62 µM
C#CCOCCOC(=O)NC(Cc1ccc(NC(=N)N)cc1)P(=O)(Oc1ccccc1)Oc1ccccc1.O=C(O)C(F)(F)F (stereo not drawn) [Intermediate 55, 2-(prop-2-ynyloxy)ethyl 1-(diphenoxyphosphoryl)-2-(4-guanidinophenyl)ethyl carbamate 2,2,2-trifluoroacetate]	0.0088 ± 0.0008 µM	19 × 10^3 ± 4 × 10^3 * M^−1 s^−1	66 ± 13 µM	33 ± 4 µM	11 ± 1 µM	50% @ 250	
C#CCOCCOCCOC(=O)NC(Cc1ccc(NC(=N)N)cc1)P(=O)(Oc1ccccc1)Oc1ccccc1.O=C(O)C(F)(F)F (stereo not drawn) [Intermediate 56, 2-(2-(prop-2-ynyloxy)ethoxy)ethyl 1-(diphenoxyphosphoryl)-2-(4-guanidinophenyl)ethylcarbamate 2,2,2-trifluoroacetate]	0.0085 ± 0.0012 µM	12 × 10^3 ± 5 × 10^3 * M^−1 s^−1	65 ± 9 µM	20 ± 3 µM	7.8 ± 0.6 µM	58% @ 250	
C#CCOCCOCCOCCOC(=O)NC(Cc1ccc(NC(=N)N)cc1)P(=O)(Oc1ccccc1)Oc1ccccc1.O=C(O)C(F)(F)F (stereo not drawn) [Intermediate 57, 2-(2-(2-(prop-2-ynyloxy)ethoxy)ethoxy)ethyl 1-(diphenoxyphosphoryl)-2-(4-guanidinophenyl)ethylcarbamate 2,2,2-trifluoroacetate]	0.011 ± 0.001 µM	11 × 10^3 ± 4 × 10^3 * M^−1 s^−1	67 ± 7 µM	21 ± 5 µM	9 ± 2 µM	54% @ 250	
C#CCCCOC(=O)NC(Cc1ccc(NC(=N)N)cc1)P(=O)(Oc1ccccc1)Oc1ccccc1.O=C(O)C(F)(F)F (stereo not drawn) [Intermediate 58, pent-4-ynyl 1-(diphenoxyphosphoryl)-2-(4-guanidinophenyl)ethylcarbamate 2,2,2-trifluoroacetate]	0.008 ± 0.0005 µM	30 × 10^3 ± 9 × 10^3 * M^−1 s^−1	29 ± 2 µM	12.2 ± 0.3 µM	3.4 ± 0.4 µM	50% @ 250	
O=C(O)C(F)(F)F.[N-]=[N+]=NCCCCCCOC(=O)NC(Cc1ccc(NC(=N)N)cc1)P(=O)(Oc1ccccc1)Oc1ccccc1 (stereo not drawn) [Intermediate 59, 6-azidohexyl 1-(diphenoxyphosphoryl)-2-(4-guanidinophenyl)ethylcarbamate 2,2,2-trifluoroacetate]	0.0096 ± 0.0019 µM	14 × 10^3 ± 3 × 10^3 * M^−1 s^−1	16.7 ± 1.7 µM	2.4 ± 0.2 µM	3.6 ± 0.3 µM	61% @ 250	
O=C(O)C(F)(F)F.[N-]=[N+]=NCCOCCOC(=O)NC(Cc1ccc(NC(=N)N)cc1)P(=O)(Oc1ccccc1)Oc1ccccc1 (stereo not drawn) [Intermediate 60, 2-(2-azidoethoxy)ethyl 1-(diphenoxyphosphoryl)-2-(4-guanidinophenyl)ethyl carbamate 2,2,2-trifluoroacetate]	0.0052 ± 0.001 µM	19 × 10^3 ± 8 × 10^3 * M^−1 s^−1	56 ± 53 µM	11.8 ± 0.6 µM	7.9 ± 0.3 µM	57% @ 250	
O=C(O)C(F)(F)F.[N-]=[N+]=NCCOCCOCCOCCOC(=O)NC(Cc1ccc(NC(=N)N)cc1)P(=O)(Oc1ccccc1)Oc1ccccc1 (stereo not drawn) [Intermediate 62, 2-(2-(2-(2-azidoethoxy)ethoxy)ethoxy)ethyl 1-(diphenoxyphosphoryl)-2-(4-guanidinophenyl)ethylcarbamate 2,2,2-trifluoroacetate]	0.015 ± 0.002 µM	9 × 10^3 ± 4 × 10^3 * M^−1 s^−1	70 ± 11 µM	29 ± 5 µM	9 ± 0.7 µM	48% @ 250	
C#CCCCOC(=O)NC(Cc1ccc(NC(=N)N)cc1)P(=O)(Oc1ccc(NC(C)=O)cc1)Oc1ccc(NC(C)=O)cc1 (stereo not drawn) [Intermediate 63, pent-4-ynyl 1-(bis(4-acetamidophenoxy)phosphoryl)-2-(4-guanidinophenyl)ethyl carbamate 2,2,2-trifluoroacetate]	0.0035 ± 0.0017 µM	40 × 10^3 ± 8 × 10^3 * M^−1 s^−1	24 ± 4 µM	2.1 ± 0.2 µM	1.4 ± 0.1 µM	70% @ 250	
